This note sets out measurements from EP3227262B1, “SULFIDE ALKYL AND PYRIDYL REVERSE SULFONAMIDE COMPOUNDS FOR HBV TREATMENT” (Novira Therapeutics Inc., priority 2014, dated 2016).

Where only a bound is given, the exact number is not on record here.

In experiment [1] the test system is HBV. Put plainly: Inhibition of HBV replication dot-blot assay in HBV-producing hepatoma cell line. In kind it is cell-based. As to conditions: Hepatitis B virus, 144 h; activity in Dot-Blot assay; HepG2-2.2.15 cells; reduction in HBV DNA levels, six days. The procedure, abridged: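 HepG2-2.2.15 confluent monolayers were exposed to a compound dilution series for six days, with medium and compound renewed at day 3. HBV DNA in supernatant/lysate was quantified by dot-blot hybridization, and EC50 was derived from dose-response reduction in HBV DNA.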

Experiment [2] relates to HBV. Briefly: HBV replication inhibition assay (encapsidated HBV DNA in supernatant, bDNA QuantiGene). The format is cell-based. As to conditions: Hepatitis B virus, 144 h, HepG2.2.15 cells, supernatant at day 6, read-out: Extra HBV DNA.

For the compound `O=C(Nc1ccc(F)c(Cl)c1)c1ccnc(NS(=O)(=O)C2CC2)c1` [Compound 124, N-(3-Chloro-4-fluorophenyl)-2-(cyclopropanesulfonamido)isonicotinamide], the results for the EC50 in the experiment with HBV [1] and with HBV [2] were less than 10000 nM and 100 nM, respectively.
In the same order, the values of `O=C(Nc1ccc(F)c(Cl)c1)c1cncc(NS(=O)(=O)C2CC2)c1` [Compound 125, N-(3-Chloro-4-fluorophenyl)-5-(cyclopropanesulfonamido)nicotinamide] are less than 10000 nM and 2100 nM.
Take `CCc1ccc(CS(=O)(=O)Nc2cc(C(=O)Nc3ccc(F)c(Cl)c3)ccn2)cc1` [Compound 180, N-(3-Chloro-4-fluorophenyl)-2-((4-ethylphenyl)methylsulfonamido)isonicotinamide]: the EC50 was less than 10000 nM in the experiment with HBV [1] and 300 nM in the experiment on HBV [2].
Regarding `CCc1ccc(CS(=O)(=O)Nc2cc(C(=O)Nc3ccc(F)c(F)c3)ccn2)cc1` [Compound 181, N-(3,4-Difluorophenyl)-2-((4-ethylphenyl)methylsulfonamido)isonicotinamide], the EC50 was less than 10000 nM with HBV [1] and 700 nM in the experiment on HBV [2].
